The record followed here is publication PMC9558053, “Development of a novel high-throughput screen for the identification of new inhibitors of protein S-acylation” (The Journal of Biological Chemistry, 2022).

For this experiment, the target named is T1, human zDHHC17 (Homo sapiens, UniProt Q8IUH5).
T1 construct: expressed in transfected cells; host or cells: HEK293T
Put plainly: GFP-SNAP25b S-acylation in HEK293T cells co-expressing zDHHC17. The conditions noted are these: in cellulo HEK293T, compound 25 μM; for inhibition at 25 µM: HEK-293T, read-out: SNAP25 S-acylation inhibition (%), zDHHC17; for SNAP25 S-acylation inhibition (%), zDHHC17: 25 µM. The format is cell-based. As to the method:
We next investigated whether the identified compounds were effective at inhibiting zDHHC enzyme isoforms other than zDHHC2 (Fig. 6 and Table 1). […] We therefore treated cells coexpressing GFP-SNAP25 and each of these zDHHC enzymes with 25 μM of TTZ-1 and TTZ-2 and studied the subsequent effect on SNAP25 S-acylation. […] Importantly, the level of enzyme expression was unaffected by the compounds. […] As any major differences in the expression levels of the different enzymes could in theory contribute to the apparent differential effects of TTZ-1 and TTZ-2, we directly compared the expression of zDHHC2, zDHHC3, zDHHC7, zDHHC15, and zDHHC17 when transfected in HEK293T cells together with GFP-SNAP25.
Figure 6 Activity of TTZ-1 and TTZ-2 against SNAP25 S-acylation by human zDHHC2, zDHHC3, zDHHC7, zDHHC15, and zDHHC17 expressed in mammalian cells.A–E, HEK293T cells were transfected with a plasmid encoding GFP-SNAP25b together with either a control plasmid pEF-BOS-HA (pEF) or a plasmid encoding either HA-tagged human zDHHC2 (zD2) (A), zDHHC3 (zD3) (B), zDHHC7 (zD7) (C), zDHHC15 (zD15) (D), or zDHHC17 (zD17) (E) for 24 h. Cells were then preincubated for 4 h with TTZ-1 or TTZ-2 (25 μM final) or DMSO control before metabolic labeling with 100 μM C16:0-azide for 4 h. Cells were lysed, and proteins having incorporated C16:0-azide were labeled by click chemistry with an alkyne-IR800 dye. Protein samples were then resolved by SDS-PAGE and transferred to nitrocellulose membranes that were first stained with an infrared-680 total protein stain. Membranes were then destained and probed with an anti-HA antibody (IR680), followed by an anti-GFP antibody (IR680). Representative images are shown, and panels are presented in the following order (from top to bottom): click chemistry signal (Click [IR800]), GFP and HA immunoblots (IR680), and Total Protein Stain (IR680). Positions of the molecular mass markers (in kilodalton) are indicated on the right side of the membranes. Three independent experiments were performed either in duplicate or in triplicate, and the quantification data were gathered on the graphs below each set of membranes. […] Filled circles represent individual samples. […] Filled circles represent individual samples. Statistical analysis (ANOVA) was performed to test whether there was a significant difference between the zDHHC expression of cells treated with DMSO as a control versus similar samples treated with TTZ-1 or TTZ-2 (∗∗p < 0.01). F, samples from A, B, C, D, and E (expressing GFP-SNAP25 and HA-tagged zDHHC enzymes and treated with DMSO) were loaded on an SDS-PAGE gel and transferred to a nitrocellulose membrane. The membrane was probed for the expression of the HA-tagged enzymes with an anti-HA antibody (IR680). […]

T1 sequence (Q8IUH5 whole entry): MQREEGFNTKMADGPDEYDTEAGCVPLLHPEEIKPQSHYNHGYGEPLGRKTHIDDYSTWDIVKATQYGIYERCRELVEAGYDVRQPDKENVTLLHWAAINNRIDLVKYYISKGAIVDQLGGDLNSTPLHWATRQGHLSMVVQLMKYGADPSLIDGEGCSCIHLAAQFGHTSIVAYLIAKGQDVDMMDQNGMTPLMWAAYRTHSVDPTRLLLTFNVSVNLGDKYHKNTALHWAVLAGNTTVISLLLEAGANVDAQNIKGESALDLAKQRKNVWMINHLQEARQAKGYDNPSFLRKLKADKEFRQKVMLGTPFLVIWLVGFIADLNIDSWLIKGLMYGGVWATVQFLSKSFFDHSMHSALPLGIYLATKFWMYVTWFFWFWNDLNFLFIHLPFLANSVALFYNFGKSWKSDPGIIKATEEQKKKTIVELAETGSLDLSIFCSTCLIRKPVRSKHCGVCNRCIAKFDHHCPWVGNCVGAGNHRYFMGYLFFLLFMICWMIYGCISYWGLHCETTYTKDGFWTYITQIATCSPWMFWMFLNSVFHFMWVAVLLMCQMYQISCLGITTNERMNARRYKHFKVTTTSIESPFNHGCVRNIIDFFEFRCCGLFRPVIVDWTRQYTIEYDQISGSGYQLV

One may read the inhibition as how much of the control response was suppressed. With `CCCCCCCOc1ccc(C(=O)Nc2cccc3c2OC(c2nnn[nH]2)CN3)cc1` (stereo not shown) [TTZ-1, N-(2-(1H-Tetrazol-5-yl)-3,4-dihydro-2H-benzo[b][1,4]oxazin-8-yl)-4-(heptyloxy)benzamide], the inhibition at 25 µM was 35 to 40% and the “SNAP25 S-acylation inhibition (%), zDHHC17” value worked out at 36 ± 7%.

Take `O=C(Nc1cccc2c1OC(c1nnn[nH]1)CN2)c1ccc(OCCCCc2ccccc2)cc1` (stereo not shown) [TTZ-2, N-(2-(1H-Tetrazol-5-yl)-3,4-dihydro-2H-benzo[b][1,4]oxazin-8-yl)-4-(4-phenylbutoxy)benzamide]: the inhibition at 25 µM was 35 to 40% and the “SNAP25 S-acylation inhibition (%), zDHHC17” value was determined as 39 ± 7%.
